Laboratory results taken from patent publication US7138361B2, “Herbicidal heterocycles” (E. I. du Pont de Nemours and Company, priority 2000, dated 2006).

Columns and labels:
Type in all cases: in vivo
[1] = test system: lambsquarters (Chenopodium album); assay: Test B postemergence; settings: 13 to 15 days
Source text: (§1) Seeds selected from barnyardgrass (Echinochloa crus-galli), Surinam grass (Brachiaria decumbens), cocklebur (Xanthium strumarium), corn (Zea mays), crabgrass (Digitaria sanguinalis), giant foxtail (Setaria faberii), lambsquarters (Chenopodium album), morning glory (Ipomoea hederacea), pigweed (Amaranthus retroflexus), rice (Oryza saliva) and velvetleaf (Abutilon theophrasti) were planted and treated preemergence with test chemicals formulated in a non-phytotoxic solvent mixture which included a surfactant.
(§2) At the same time, plants selected from these crop and weed species and also blackgrass (Alopecurus myosuroides), wheat (Triticum aestivum) and wild oat (Avena fatua) were treated with postemergence applications of test chemicals formulated in the same manner. Plants ranged in height from 2 to 18 cm (1- to 4-leaf stage) for postemergence treatments. Plant species in the flooded paddy test consisted of rice (Oryza saliva), smallflower flatsedge (Cyperus difformis), duck salad (Heteranthera limosa) and barnyardgrass (Echinochloa crus-galli) grown to the 2-leaf stage for testing. Treated plants and controls were maintained in a greenhouse for 13 to 15 days, after which time all species were compared to controls and visually evaluated. Plant response ratings, summarized in Table B, are based on a scale of 0 to 100 where 0 is no effect and 100 is complete control. A dash (-) response means no test result.

[2] = test system: Surinam grass (Brachiaria decumbens); assay: Test B postemergence; settings: 13 to 15 days
Source text: as §1, §2

[3] = test system: pigweed (Amaranthus retroflexus); assay: Test B postemergence; settings: 13 to 15 days
Source text: as §1, §2

[4] = test system: giant foxtail (Setaria faberii); assay: Test B postemergence; settings: 13 to 15 days
Source text: as §1, §2

[5] = test system: barnyardgrass (Echinochloa crus-galli); assay: Test B postemergence; settings: 13 to 15 days
Source text: as §1, §2

corn (Zea mays) [6] = assay: Test B postemergence; settings: 13 to 15 days
Source text: as §1, §2

[7] = test system: crabgrass (Digitaria sanguinalis); assay: Test B postemergence; settings: 13 to 15 days
Source text: as §1, §2

[8] = test system: morning glory (Ipomoea hederacea); assay: Test B postemergence; settings: 13 to 15 days
Source text: as §1, §2

[9] = test system: velvetleaf (Abutilon theophrasti); assay: Test B postemergence; settings: 13 to 15 days
Source text: as §1, §2

wild oat (Avena fatua) = assay: Test B postemergence; settings: 13 to 15 days
Source text: as §1, §2

[10] = test system: blackgrass (Alopecurus myosuroides); assay: Test B postemergence; settings: 13 to 15 days
Source text: as §1, §2

[11] = test system: wheat (Triticum aestivum); assay: Test B postemergence; settings: 13 to 15 days
Source text: as §1, §2

[12] = test system: cocklebur (Xanthium strumarium); assay: Test B postemergence; settings: 13 to 15 days
Source text: as §1, §2

[13] = test system: lambsquarters (Chenopodium album); assay: Test B preemergence
Source text: as §1, §2

[14] = test system: Surinam grass (Brachiaria decumbens); assay: Test B preemergence
Source text: as §1, §2

[15] = test system: pigweed (Amaranthus retroflexus); assay: Test B preemergence
Source text: as §1, §2

[16] = test system: giant foxtail (Setaria faberii); assay: Test B preemergence
Source text: as §1, §2

[17] = test system: barnyardgrass (Echinochloa crus-galli); assay: Test B preemergence
Source text: as §1, §2

corn (Zea mays) [18] = assay: Test B preemergence
Source text: as §1, §2

[19] = test system: crabgrass (Digitaria sanguinalis); assay: Test B preemergence
Source text: as §1, §2

rice (Oryza saliva) [20] = assay: Test B preemergence
Source text: as §1, §2

[21] = test system: morning glory (Ipomoea hederacea); assay: Test B preemergence
Source text: as §1, §2

[22] = test system: velvetleaf (Abutilon theophrasti); assay: Test B preemergence
Source text: as §1, §2

[23] = test system: cocklebur (Xanthium strumarium); assay: Test B preemergence
Source text: as §1, §2

[24] = test system: duck salad (Heteranthera limosa); assay: Test C flooded paddy test; settings: for Ducksalad plant response rating: Flooded Paddy, scale 0 to 100, 0 no effect, 100 complete control; for Plant response rating, Ducksalad: flooded paddy test, scale 0 to 100 (0 no effect, 100 complete control)
Procedure: (§3) At the same time, plants selected from these crop and weed species and also winter barley (Hordeum vulgare), blackgrass (Alopecurus myosuroides), canary grass (Phalaris minor), chickweed (Stellaria media), downy brome (Bromus tectorum), green foxtail (Setaria viridis), Italian ryegrass (Lolium multiflorum), wheat (Triticum aestivum), wild oat (Avena fatua) and windgrass (Apera spica-venti) were treated with postemergence applications of some of the test chemicals formulated in the same manner. Plants ranged in height from 2 to 18 cm (1- to 4-leaf stage) for postemergence treatments. Plant species in the flooded paddy test consisted of rice (Oryza saliva), smallflower flatsedge (Cyperus difformis), duck salad (Heteranthera limosa) and barnyardgrass (Echinochloa crus-galli) grown to the 2-leaf stage for testing. Treated plants and controls were maintained in a greenhouse for 12 to 14 days, after which time all species were compared to controls and visually evaluated. Plant response ratings, summarized in Table C, are based on a scale of 0 to 100 where 0 is no effect and 100 is complete control. A dash (-) response means no test result.

[25] = test system: barnyardgrass (Echinochloa crus-galli); assay: Test C flooded paddy test; settings: for Barnyardgrass plant response rating: Flooded Paddy, scale 0 to 100, 0 no effect, 100 complete control; for Plant response rating, Barnyardgrass: flooded paddy test, scale 0 to 100 (0 no effect, 100 complete control)
Procedure: as §3

rice (Oryza saliva) [26] = assay: Test C flooded paddy test; settings: for Rice plant response rating: Flooded Paddy, scale 0 to 100, 0 no effect, 100 complete control; for Plant response rating, Rice: flooded paddy test, scale 0 to 100 (0 no effect, 100 complete control)
Procedure: as §3

[27] = test system: smallflower flatsedge (Cyperus difformis); assay: Test C flooded paddy test; settings: for Flatsedge plant response rating: Flooded Paddy, scale 0 to 100, 0 no effect, 100 complete control; for Plant response rating, Flatsedge: flooded paddy test, scale 0 to 100 (0 no effect, 100 complete control)
Procedure: as §3

[28] = Rate 125 g/ha, scale 0 (no effect) to 100 (complete control)
[29] = Rate 500 g/ha, scale 0 to 100, 0 is no effect, 100 is complete control
[30] = Preemergence, Rate 500 g/ha, scale 0 to 100, 0 no effect, 100 complete control
[31] = preemergence, Rate 125 g/ha, scale of 0 to 100 where 0 is no effect and 100 is complete control, 13 to 15 days

CC(C)(C)c1ccn(C2CCN(c3cccc(OC(F)(F)C(F)F)c3)C2=O)n1 (stereo not shown) [Compound 48]
50: Rice plant response rating (rice (Oryza saliva) [26]; Rate 500 g/ha)
80: Plant response rating, Lambsquarters [1, 29] | Plant response rating, Crabgrass [19, 30]
40: Plant response rating, Barnyardgrass ([25]; Rate 125 g/ha)
20: Plant response rating, Ducksalad ([24]; Rate 125 g/ha) | Plant response rating, Barnyardgrass ([25]; Rate 62 g/ha) | Rice plant response rating (rice (Oryza saliva) [26]; Rate 250 g/ha)
70: Ducksalad plant response rating ([24]; Rate 250 g/ha)
100: Plant response rating, Lambsquarters [13, 30] | Plant response rating, Lambsquarters [13, 31] | Barnyardgrass plant response rating ([25]; Rate 250 g/ha) | Barnyardgrass plant response rating ([25]; Rate 500 g/ha) | Flatsedge plant response rating ([27]; Rate 250 g/ha) | Flatsedge plant response rating ([27]; Rate 500 g/ha)
90: Ducksalad plant response rating ([24]; Rate 500 g/ha) | Plant response rating, Flatsedge ([27]; Rate 62 g/ha) | Plant response rating, Flatsedge ([27]; Rate 125 g/ha)
0: Plant response rating, Lambsquarters [1, 28] | Plant response rating, Surinam grass [2, 28] | Plant response rating, Surinam grass [2, 29] | Plant response rating, Pigweed [3, 28] | Plant response rating, Pigweed [3, 29] | Plant response rating, Foxtail, Giant [4, 28] | Plant response rating, Foxtail, Giant [4, 29] | Plant response rating, Barnyardgrass [5, 28] | Plant response rating, Barnyardgrass [5, 29] | Plant response rating, Corn (corn (Zea mays) [6]; [28]) | Plant response rating, Corn (corn (Zea mays) [6]; [29]) | Plant response rating, Crabgrass [7, 28] | Plant response rating, Crabgrass [7, 29] | Plant response rating, Morningglory [8, 28] | Plant response rating, Morningglory [8, 29] | Plant response rating, Velvetleaf [9, 28] | Plant response rating, Velvetleaf [9, 29] | Plant response rating, Wild Oat (wild oat (Avena fatua); [28]) | Plant response rating, Wild Oat (wild oat (Avena fatua); [29]) | Plant response rating, Blackgrass [10, 28] | Plant response rating, Blackgrass [10, 29] | Plant response rating, Wheat [11, 28] | Plant response rating, Wheat [11, 29] | Plant response rating, Cocklebur [12, 28] | Plant response rating, Cocklebur [12, 29] | Plant response rating, Surinam grass [14, 30] | Plant response rating, Surinam grass [14, 31] | Plant response rating, Pigweed [15, 30] | Plant response rating, Pigweed [15, 31] | Plant response rating, Foxtail, Giant [16, 30] | Plant response rating, Foxtail, Giant [16, 31] | Plant response rating, Barnyardgrass [17, 30] | Plant response rating, Barnyardgrass [17, 31] | Plant response rating, Corn (corn (Zea mays) [18]; [30]) | Plant response rating, Corn (corn (Zea mays) [18]; [31]) | Plant response rating, Crabgrass [19, 31] | Plant response rating, Rice (rice (Oryza saliva) [20]; [30]) | Plant response rating, Rice (rice (Oryza saliva) [20]; [31]) | Plant response rating, Morningglory [21, 30] | Plant response rating, Morningglory [21, 31] | Plant response rating, Velvetleaf [22, 30] | Plant response rating, Velvetleaf [22, 31] | Plant response rating, Cocklebur [23, 30] | Plant response rating, Cocklebur [23, 31] | Plant response rating, Ducksalad ([24]; Rate 62 g/ha) | Plant response rating, Rice (rice (Oryza saliva) [26]; Rate 62 g/ha) | Plant response rating, Rice (rice (Oryza saliva) [26]; Rate 125 g/ha)
